Holding throughout (experiment): Z'-LYTE kinase panel
Assay type in all cases: biochemical

For one assay, the target named is T1, BMX (Homo sapiens, UniProt P51813).
T1 construct: purchased ThermoFisher (SelectScreen, Z'-LYTE)
T1 sequence (P51813 1-675): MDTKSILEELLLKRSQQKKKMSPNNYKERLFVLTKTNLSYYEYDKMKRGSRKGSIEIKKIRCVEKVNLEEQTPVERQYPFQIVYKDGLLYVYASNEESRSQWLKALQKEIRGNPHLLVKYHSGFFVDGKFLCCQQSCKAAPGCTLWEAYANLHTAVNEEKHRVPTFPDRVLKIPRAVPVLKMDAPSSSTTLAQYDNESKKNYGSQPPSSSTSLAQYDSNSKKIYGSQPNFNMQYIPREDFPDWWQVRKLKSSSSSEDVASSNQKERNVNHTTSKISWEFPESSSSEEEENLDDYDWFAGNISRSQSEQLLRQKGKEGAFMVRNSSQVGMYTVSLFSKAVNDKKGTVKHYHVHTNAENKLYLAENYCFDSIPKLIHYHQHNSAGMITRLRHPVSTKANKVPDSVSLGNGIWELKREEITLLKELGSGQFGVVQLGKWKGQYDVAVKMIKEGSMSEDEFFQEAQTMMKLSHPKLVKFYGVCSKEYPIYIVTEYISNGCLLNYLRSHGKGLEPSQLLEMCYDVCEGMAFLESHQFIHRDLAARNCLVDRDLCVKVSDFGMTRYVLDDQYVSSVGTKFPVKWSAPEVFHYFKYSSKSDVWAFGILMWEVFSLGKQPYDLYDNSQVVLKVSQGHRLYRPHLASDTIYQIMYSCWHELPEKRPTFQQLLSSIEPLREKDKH
The procedure, abridged: (§1)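 Compounds were profiled across a 225-kinase standard panel. Each kinase was run in the standard Z′-LYTE assay and percentage inhibition was recorded at a compound concentration of 10 µM.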

A further assay has as its target T2, HIPK3 (YAK1) (Homo sapiens, UniProt Q9H422).
T2 construct: purchased ThermoFisher (SelectScreen, Z'-LYTE)
The procedure, abridged: as §1

For a further assay, the target named is T3, MAPK14 (p38 alpha) (Homo sapiens, UniProt Q16539).
T3 construct: purchased ThermoFisher (SelectScreen, Z'-LYTE)
To be noted: 10 µM compound; ATP 100. The procedure, abridged: as §1

Another assay has as its target T4, CAMK4 (CaMKIV) (Homo sapiens, UniProt Q16566).
T4 construct: purchased ThermoFisher (SelectScreen, Z'-LYTE)
The gist of the method: as §1

Another assay deals with T5, PRKCN (PKD3) (Homo sapiens, UniProt O94806).
T5 construct: purchased ThermoFisher (SelectScreen, Z'-LYTE)
T5 sequence (O94806 1-890): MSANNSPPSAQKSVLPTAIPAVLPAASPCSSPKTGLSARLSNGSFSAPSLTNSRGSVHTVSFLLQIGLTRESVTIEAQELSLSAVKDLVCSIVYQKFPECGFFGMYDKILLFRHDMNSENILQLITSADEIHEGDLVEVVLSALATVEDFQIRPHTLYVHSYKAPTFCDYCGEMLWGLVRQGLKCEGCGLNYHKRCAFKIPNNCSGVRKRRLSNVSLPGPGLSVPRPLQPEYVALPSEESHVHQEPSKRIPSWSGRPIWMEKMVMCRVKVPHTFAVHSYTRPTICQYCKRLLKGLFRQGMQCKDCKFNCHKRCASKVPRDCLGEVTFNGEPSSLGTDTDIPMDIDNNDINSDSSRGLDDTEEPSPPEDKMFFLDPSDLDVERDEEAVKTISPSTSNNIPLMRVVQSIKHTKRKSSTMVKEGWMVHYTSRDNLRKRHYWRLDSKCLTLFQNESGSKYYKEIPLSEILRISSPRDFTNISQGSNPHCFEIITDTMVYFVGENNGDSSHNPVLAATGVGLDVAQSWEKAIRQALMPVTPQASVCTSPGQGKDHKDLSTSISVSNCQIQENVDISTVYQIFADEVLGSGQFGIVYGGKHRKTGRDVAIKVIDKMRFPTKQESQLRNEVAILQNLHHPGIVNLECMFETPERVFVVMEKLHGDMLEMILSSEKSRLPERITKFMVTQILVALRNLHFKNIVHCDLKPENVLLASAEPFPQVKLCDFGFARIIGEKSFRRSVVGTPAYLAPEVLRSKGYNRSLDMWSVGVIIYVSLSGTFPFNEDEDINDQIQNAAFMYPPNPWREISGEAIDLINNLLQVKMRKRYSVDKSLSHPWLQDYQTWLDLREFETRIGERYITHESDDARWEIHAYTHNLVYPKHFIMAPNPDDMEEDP
The gist of the method:
as §1

A further assay concerns the target T6, NEK2 (Homo sapiens, UniProt P51955).
T6 construct: purchased ThermoFisher (SelectScreen, Z'-LYTE)
T6 sequence (P51955 1-445): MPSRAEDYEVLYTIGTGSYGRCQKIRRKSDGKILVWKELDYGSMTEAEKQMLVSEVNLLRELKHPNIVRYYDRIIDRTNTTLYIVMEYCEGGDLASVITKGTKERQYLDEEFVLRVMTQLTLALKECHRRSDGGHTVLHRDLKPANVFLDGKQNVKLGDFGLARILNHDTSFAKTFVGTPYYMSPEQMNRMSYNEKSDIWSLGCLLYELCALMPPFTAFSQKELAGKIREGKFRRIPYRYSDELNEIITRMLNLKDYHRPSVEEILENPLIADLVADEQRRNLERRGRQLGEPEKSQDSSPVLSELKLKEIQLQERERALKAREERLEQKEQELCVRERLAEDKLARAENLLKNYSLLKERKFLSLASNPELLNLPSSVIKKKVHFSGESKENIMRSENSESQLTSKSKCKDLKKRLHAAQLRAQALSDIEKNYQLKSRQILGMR
The gist of the method: as §1

This is an account of results in PMC4854315, “Discovery of a novel allosteric inhibitor-binding site in ERK5: comparison with the canonical kinase hinge ATP-binding site” (Acta Crystallographica. Section D, Structural Biology, 2016).

The term inhibition denotes the drop in the measured response relative to a control, in per cent.

T2 sequence (Q9H422 whole entry): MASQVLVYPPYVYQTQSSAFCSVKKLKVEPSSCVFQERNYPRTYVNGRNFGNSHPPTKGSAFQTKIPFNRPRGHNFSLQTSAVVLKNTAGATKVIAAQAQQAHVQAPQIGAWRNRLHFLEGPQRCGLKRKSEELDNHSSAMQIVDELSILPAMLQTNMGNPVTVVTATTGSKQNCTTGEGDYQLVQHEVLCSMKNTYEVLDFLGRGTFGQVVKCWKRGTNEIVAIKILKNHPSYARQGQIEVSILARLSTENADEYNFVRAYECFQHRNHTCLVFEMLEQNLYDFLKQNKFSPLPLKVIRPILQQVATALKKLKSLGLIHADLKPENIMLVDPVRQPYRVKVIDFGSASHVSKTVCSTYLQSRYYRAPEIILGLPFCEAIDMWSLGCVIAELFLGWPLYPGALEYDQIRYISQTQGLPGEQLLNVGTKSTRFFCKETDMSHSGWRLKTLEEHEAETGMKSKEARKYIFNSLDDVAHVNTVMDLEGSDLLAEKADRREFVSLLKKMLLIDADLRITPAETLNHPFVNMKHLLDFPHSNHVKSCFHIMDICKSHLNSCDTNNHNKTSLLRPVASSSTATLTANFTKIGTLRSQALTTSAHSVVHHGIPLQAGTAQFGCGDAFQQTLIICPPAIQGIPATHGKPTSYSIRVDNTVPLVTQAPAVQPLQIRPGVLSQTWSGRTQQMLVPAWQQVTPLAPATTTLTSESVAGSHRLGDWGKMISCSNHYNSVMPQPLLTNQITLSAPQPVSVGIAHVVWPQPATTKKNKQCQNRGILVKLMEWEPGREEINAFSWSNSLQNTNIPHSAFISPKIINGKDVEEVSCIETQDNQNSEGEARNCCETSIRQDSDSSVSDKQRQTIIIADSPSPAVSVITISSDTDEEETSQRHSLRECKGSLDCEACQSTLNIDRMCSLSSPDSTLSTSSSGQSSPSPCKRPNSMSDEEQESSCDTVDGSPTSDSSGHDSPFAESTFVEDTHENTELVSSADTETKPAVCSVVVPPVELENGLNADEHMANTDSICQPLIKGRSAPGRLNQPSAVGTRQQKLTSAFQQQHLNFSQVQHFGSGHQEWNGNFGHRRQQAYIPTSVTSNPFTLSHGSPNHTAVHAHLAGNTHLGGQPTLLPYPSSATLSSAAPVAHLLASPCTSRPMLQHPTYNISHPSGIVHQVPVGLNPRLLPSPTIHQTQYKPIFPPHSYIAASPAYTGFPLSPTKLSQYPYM
T3 sequence (Q16539 whole entry): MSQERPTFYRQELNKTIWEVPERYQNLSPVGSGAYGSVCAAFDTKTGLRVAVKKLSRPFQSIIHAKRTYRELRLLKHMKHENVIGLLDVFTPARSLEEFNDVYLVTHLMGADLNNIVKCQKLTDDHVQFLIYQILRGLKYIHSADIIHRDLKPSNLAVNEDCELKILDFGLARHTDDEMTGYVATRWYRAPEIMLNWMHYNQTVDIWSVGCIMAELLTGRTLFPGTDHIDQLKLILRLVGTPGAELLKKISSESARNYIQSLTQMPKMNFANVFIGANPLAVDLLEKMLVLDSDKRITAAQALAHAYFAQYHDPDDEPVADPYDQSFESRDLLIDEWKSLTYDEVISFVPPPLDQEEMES

As for `Cc1ncc(-c2nc(Nc3ccc(C(=O)NCCN4CCCCC4)cc3)ncc2F)n1C(C)C` [Compound 3], the inhibition at 10 µM against BMX is 68%; against HIPK3 (YAK1), 88%; against MAPK14 (p38 alpha), 22%; on CAMK4 (CaMKIV) it was 8%; against PRKCN (PKD3) it was 87%; against NEK2 it was -7.52%.
With `Cc1cc(Nc2nc(N)nn2C(=O)NC(C)C)ccc1Cl` [Compound 5], the inhibition at 10 µM was 19% against BMX; 6.56% at HIPK3 (YAK1); 26% on MAPK14 (p38 alpha); -10% at CAMK4 (CaMKIV); 11% at PRKCN (PKD3); -3% at NEK2.
Turning to “XMD8-92 [Compound 2, reference compound]”, the “BMX % Inhibition” value on BMX (10 µM compound, ATP Km app) came out at 41%. Further, the “HIPK3 (YAK1) % Inhibition” value on HIPK3 (YAK1) (10 µM compound, ATP Km app) came to 1.8%. For the same molecule, at MAPK14 (p38 alpha), the “MAPK14 (p38 alpha) % Inhibition” value came out at 99%. Also, the “CAMK4 (CaMKIV) % Inhibition” value at CAMK4 (CaMKIV) (10 µM compound, ATP Km app) was 3%. For the same molecule, the “PRKCN (PKD3) % Inhibition” value at PRKCN (PKD3) (10 µM compound, ATP Km app) amounted to 18%. Also, the “NEK2 % Inhibition” value on NEK2 (10 µM compound, ATP Km app) is reported as -17%.
